Laboratory results taken from patent publication US7358359B2, “Antibacterial agents” (University of Washington, priority 2003, dated 2008).
Values after ≈ are worked out from the molar mass of the structure shown. Read-outs that look alike come from different tables or passages of the source.

Assays:
Type in all cases: cell-based
P. aeruginosa 27853 = experiment: MIC broth microdilution, standard panel: P. aeruginosa 27853; conditions: Pseudomonas aeruginosa, standard panel of organisms
Description: (§1) Bacterial isolates were cultivated from −70° C. frozen stocks by two consecutive overnight passages at 35° C. in ambient air on 5% blood agar (Remel, Lenexa, Kans.). Clinical isolates tested were from a collection composed of isolates collected during clinical trials and recent clinical isolates obtained from various geographically diverse hospitals in the US. Quality control and primary panel strains were from the American Type Culture Collection (ATCC; Rockville, Md.), with the exception of P. aeruginosa PAO200, a strain with a deletion of the mexABoprM genes that was received from Dr. H. Schweizer. […] Strain Z61 (ATCC 35151) is also hypersusceptible to antibacterials. It is thought that the hypersusceptibility of this strain is the result of increased permeability of its outer membrane (Angus B L et al, Antimicrobial Agents and Chemotherapy 1982 21,299-309: Outer membrane permeability in Pseudomonas aeruginosa: Comparison of a wild-type with an antibacterial-supersusceptible mutant).
(§2) Minimum Inhibitory Concentrations (MICs) were determined by the broth microdilution method in accordance with the National Committee for Clinical Laboratory Standards (NCCLS) guidelines. In brief, organism suspensions were are adjusted to a 0.5 McFarland standard to yield a final inoculum between 3×10^5 and 7×10^5 colony-forming units (CFU)/mL. Drug dilutions and inocula were made in sterile, cation adjusted Mueller-Hinton Broth (Remel). An inoculum volume of 100 μl was added to wells containing 100 μl of broth with 2-fold serial dilutions of drug. All inoculated microdilution trays were incubated in ambient air at 35° C. for 18-24 hours. Following incubation, the lowest concentration of the drug that prevented visible growth was recorded as the MIC. Performance of the assay was monitored by the use of laboratory quality-control strains against tobramycin, that has a defined MIC spectrum, in accordance with NCCLS guidelines.

S. aureus 29213 = experiment: MIC broth microdilution, standard panel: S. aureus 29213; conditions: Staphylococcus aureus, standard panel of organisms
Description: as §1, §2

[1] = tested on: Pseudomonas aeruginosa cystic fibrosis isolate 3198; experiment: MIC vs cystic fibrosis isolate of P. aeruginosa 3198 (sensitive to most antibacterials); conditions: strain 3198, Sensitive, LpxC inhibitors, MIC key class
Description: (§3) Bacterial isolates were cultivated from −70° C. frozen stocks by two consecutive overnight passages at 35° C. in ambient air on 5% blood agar (Remel, Lenexa, Kans.). Clinical isolates tested were from a collection composed of isolates collected during clinical trials and recent clinical isolates obtained from various geographically diverse hospitals in the US. Quality control and primary panel strains were from the American Type Culture Collection (ATCC; Rockville, Md.), with the exception of P. aeruginosa PAO200, a strain with a deletion of the mexABoprM genes that was received from Dr. H. Schweizer.
as §2, with “MIC.” for “MIC. Performance of the assay was monitored by the use of laboratory quality-control strains against tobramycin, that has a defined MIC spectrum, in accordance with NCCLS guidelines.”

[2] = tested on: non-CF clinical isolates of P. aeruginosa; experiment: MIC vs non-CF clinical isolates of P. aeruginosa; conditions: Pseudomonas aeruginosa, MIC key class
Description: as §1, §2

Alcaligenes xylosoxidans = experiment: MIC vs non-fermenting organisms: Alcaligenes xylosoxidans; conditions: Achromobacter xylosoxidans; Alcal. xyl; MIC key class
Description: as §3
as §2, with “MIC.” for “MIC. Performance of the assay was monitored by the use of laboratory quality-control strains against tobramycin, that has a defined MIC spectrum, in accordance with NCCLS guidelines.”

Burkholderia cepacia = experiment: MIC vs non-fermenting organisms: Burkholderia cepacia; conditions: Burkholderia cepacia, B. cepacia; MIC key class; read-out: MIC
Description: as §3
as §2, with “MIC.” for “MIC. Performance of the assay was monitored by the use of laboratory quality-control strains against tobramycin, that has a defined MIC spectrum, in accordance with NCCLS guidelines.”

[3] = tested on: Stenotrophomonas maltophilia; experiment: MIC vs non-fermenting organisms: Stenotrophomonas maltophilia; conditions: Stenotrophomonas maltophilia, S. malt.; MIC key class; read-out: MIC
Description: as §3
as §2, with “MIC.” for “MIC. Performance of the assay was monitored by the use of laboratory quality-control strains against tobramycin, that has a defined MIC spectrum, in accordance with NCCLS guidelines.”

Enterobacter aerogenes = experiment: MIC vs enteric organisms: Enterobacter aerogenes; conditions: Klebsiella aerogenes; E. aer.; MIC key class
Description: as §3
as §2, with “MIC.” for “MIC. Performance of the assay was monitored by the use of laboratory quality-control strains against tobramycin, that has a defined MIC spectrum, in accordance with NCCLS guidelines.”

Escherichia coli = experiment: MIC vs enteric organisms: Escherichia coli clinical isolates; conditions: Escherichia coli, MIC key class, read-out: MIC
Description: as §3
as §2, with “MIC.” for “MIC. Performance of the assay was monitored by the use of laboratory quality-control strains against tobramycin, that has a defined MIC spectrum, in accordance with NCCLS guidelines.”

Proteus mirabilis = experiment: MIC vs enteric organisms: Proteus mirabilis; conditions: P. mir., MIC key class
Description: as §3
as §2, with “MIC.” for “MIC. Performance of the assay was monitored by the use of laboratory quality-control strains against tobramycin, that has a defined MIC spectrum, in accordance with NCCLS guidelines.”

[4] = tested on: Pseudomonas aeruginosa cystic fibrosis isolate 3232; experiment: MIC vs cystic fibrosis isolate of P. aeruginosa 3232 (Ceftaz. R); conditions: strain 3232, Ceftaz. R, LpxC inhibitors, MIC key class

| Structure (SMILES) | MIC (P. aeruginosa 27853) | MIC (S. aureus 29213) | MIC [1] | MIC ([2]; P. aer 12307) | MIC ([2]; P. aer 27853) | MIC ([2]; P. aer psa-6b) | MIC ([2]; PAO1, P. aer. PAO1) | MIC (Alcaligenes xylosoxidans) | MIC (Burkholderia cepacia) | MIC [3] | MIC (Enterobacter aerogenes) | MIC (Escherichia coli; E. coli 1619) | MIC (Escherichia coli; E. coli 2788) | MIC (Proteus mirabilis) | MIC [4] |
| --- | --- | --- | --- | --- | --- | --- | --- | --- | --- | --- | --- | --- | --- | --- | --- |
| C[C@@H](O)[C@H](NC(=O)c1ccc(C#Cc2ccccc2)cc1)C(=O)NO [Example 12, N-(1-(N-hydroxycarbamoyl)(1S,2R)-2-hydroxypropyl)[4-(2-phenylethynyl)phenyl]carboxamide] | < 6.25 mg/L | > 50 mg/L | < 6.25 mg/L | < 6.25 mg/L | < 6.25 mg/L | < 6.25 mg/L | < 6.25 mg/L | < 6.25 mg/L | 6.25 to 50 mg/L (≈ 18.5 to 148 µM) | < 6.25 mg/L | > 50 mg/L | < 6.25 mg/L | < 6.25 mg/L | < 6.25 mg/L | < 6.25 mg/L |
| C[C@@H](N)[C@H](NC(=O)c1ccc(C#Cc2ccccc2)cc1)C(=O)NO [Example 13] | < 6.25 mg/L | > 50 mg/L | < 6.25 mg/L |  | < 6.25 mg/L | < 6.25 mg/L | < 6.25 mg/L | < 6.25 mg/L | < 6.25 mg/L | 6.25 to 50 mg/L (≈ 18.5 to 148 µM) | > 50 mg/L | < 6.25 mg/L | < 6.25 mg/L | < 6.25 mg/L | < 6.25 mg/L |
| C[C@@H](O)[C@H](NC(=O)c1ccc(C#CC#Cc2ccccc2)cc1)C(=O)NO [Example 19, N-(1-(N-hydroxycarbamoyl)(1S,2R)-2-hydroxypropyl)[4-(4-phenylbuta-1,3-diynyl)phenyl]carboxamide] | < 6.25 mg/L | 6.25 to 50 mg/L (≈ 17.2 to 138 µM) | < 6.25 mg/L | < 6.25 mg/L | < 6.25 mg/L | < 6.25 mg/L | < 6.25 mg/L | 6.25 to 50 mg/L (≈ 17.2 to 138 µM) | 6.25 to 50 mg/L (≈ 17.2 to 138 µM) | 6.25 to 50 mg/L (≈ 17.2 to 138 µM) | < 6.25 mg/L | < 6.25 mg/L | < 6.25 mg/L | < 6.25 mg/L | < 6.25 mg/L |
| CCc1ccc(-c2ccc(C(=O)N[C@@H](CN)C(=O)NO)cc2)cc1 [Example 280, N-[(1S)-1-(aminomethyl)-2-(hydroxyamino)-2-oxoethyl]-4′-ethyl-1,1-biphenyl-4-carboxamide] | < 6.25 mg/L | > 50 mg/L | < 6.25 mg/L | < 6.25 mg/L | < 6.25 mg/L | < 6.25 mg/L | < 6.25 mg/L | 6.25 to 50 mg/L (≈ 19.1 to 153 µM) | 6.25 to 50 mg/L (≈ 19.1 to 153 µM) | 6.25 to 50 mg/L (≈ 19.1 to 153 µM) | > 50 mg/L | < 6.25 mg/L | < 6.25 mg/L | 6.25 to 50 mg/L (≈ 19.1 to 153 µM) | < 6.25 mg/L |
| C[C@@H](O)[C@H](NC(=O)c1ccc(-c2ccc(Br)cc2)cc1)C(=O)NO [Example 315, 4′-bromo-N-{(1S,2R)-2-hydroxy-1-[(hydroxyamino)carbonyl]propyl}-1,1′-biphenyl-4-carboxamide] | < 6.25 mg/L | > 50 mg/L | < 6.25 mg/L | < 6.25 mg/L | < 6.25 mg/L | < 6.25 mg/L | < 6.25 mg/L | 6.25 to 50 mg/L (≈ 15.9 to 127 µM) | < 6.25 mg/L | < 6.25 mg/L | > 50 mg/L | < 6.25 mg/L | < 6.25 mg/L | > 50 mg/L | < 6.25 mg/L |
| NC[C@H](NC(=O)c1ccc(C#CC#Cc2ccccc2)cc1)C(=O)NO [Example 481, N-[(1S)-1-(aminomethyl)-2-(hydroxyamino)-2-oxoethyl]-4-(4-phenylbuta-1,3-diynyl)benzamide] | < 6.25 mg/L | > 50 mg/L | < 6.25 mg/L | < 6.25 mg/L | < 6.25 mg/L | < 6.25 mg/L | < 6.25 mg/L | > 50 mg/L | 6.25 to 50 mg/L (≈ 18 to 144 µM) | > 50 mg/L | > 50 mg/L | < 6.25 mg/L | < 6.25 mg/L | < 6.25 mg/L | < 6.25 mg/L |
| NC[C@H](NC(=O)c1ccc(C#Cc2ccc(NC(=O)CNC3CC3)cc2)cc1)C(=O)NO [Example 516, N-[(1S)-1-(aminomethyl)-2-(hydroxyamino)-2-oxoethyl]-4-[(4-{[(cyclopropylamino)acetyl]amino}phenyl)ethynyl]benzamide] | < 6.25 mg/L | > 50 mg/L | < 6.25 mg/L | < 6.25 mg/L | < 6.25 mg/L | < 6.25 mg/L |  | > 50 mg/L | > 50 mg/L | > 50 mg/L | > 50 mg/L | < 6.25 mg/L | 6.25 to 50 mg/L (≈ 14.4 to 115 µM) | > 50 mg/L | < 6.25 mg/L |
| C[C@@H](O)[C@H](NC(=O)c1ccc(C#CC#Cc2ccc(NC(=O)CNc3ccccc3)cc2)cc1)C(=O)NO [Example 777, N-{(1S,2R)-2-hydroxy-1-[(hydroxyamino)carbonyl]propyl}-4-[4-(4-{[(phenylamino)acetyl]amino}phenyl)buta-1,3-diynyl]benzamide] | < 6.25 mg/L | > 50 mg/L | < 6.25 mg/L | < 6.25 mg/L | < 6.25 mg/L | 6.25 to 50 mg/L (≈ 12.2 to 97.9 µM) |  | 6.25 to 50 mg/L (≈ 12.2 to 97.9 µM) | < 6.25 mg/L | > 50 mg/L | 6.25 to 50 mg/L (≈ 12.2 to 97.9 µM) | < 6.25 mg/L | < 6.25 mg/L | < 6.25 mg/L | < 6.25 mg/L |
| CCc1ccc(-c2ccc(C(=O)N[C@H](C(=O)NO)[C@@H](C)N)cc2)cc1 [Example 779, N-{(1S,2R)-2-amino-1-[(hydroxyamino)carbonyl]propyl)-4′-ethyl-1,1′-biphenyl-4-carboxamide] | < 6.25 mg/L | > 50 mg/L | < 6.25 mg/L |  | < 6.25 mg/L | < 6.25 mg/L | < 6.25 mg/L | < 6.25 mg/L | < 6.25 mg/L | 6.25 to 50 mg/L (≈ 18.3 to 146 µM) | > 50 mg/L | < 6.25 mg/L | < 6.25 mg/L | 6.25 to 50 mg/L (≈ 18.3 to 146 µM) | < 6.25 mg/L |
| C[C@@H](O)[C@H](NC(=O)c1ccc(C#CC#Cc2ccc(NC(=O)CNc3ccccn3)cc2)cc1)C(=O)NO [Example 801, N-{(1S,2R)-2-hydroxy-1-[(hydroxyamino)carbonyl]propyl}-4-[4-(4-{[(pyridin-2-ylamino)acetyl]amino}phenyl)buta-1,3-diynyl]benzamide] | < 6.25 mg/L | > 50 mg/L | < 6.25 mg/L |  | < 6.25 mg/L | < 6.25 mg/L | < 6.25 mg/L | > 50 mg/L | 6.25 to 50 mg/L (≈ 12.2 to 97.7 µM) | > 50 mg/L | 6.25 to 50 mg/L (≈ 12.2 to 97.7 µM) | < 6.25 mg/L | < 6.25 mg/L | < 6.25 mg/L | < 6.25 mg/L |
